Test results published in patent US7671058B2, “N-(3,4-disubstituted phenyl) salicylamide derivatives” (Institute of Medicinal Molecular Design, Inc., priority 2006, dated 2010).
Read-outs that look alike come from different tables or passages of the source.

What was measured:
STAT6 = STAT6 inhibition test: (GLS)x8/pTA-Luc luciferase reporter in U2-OS cells stimulated with human IL-4; type: cell-based; conditions: human IL-4 40 ng/mL; for Inhibition Rate of STAT6 (%) / inhibition at 2 µM: compound 2 μM, 8 hours; for IC50: from inhibition rates at 1, 0.1, 0.01 and 0.001 μM, read-out: IC50 against activation of STAT6; for inhibition at 2 µM: read-out: Inhibition Rate of STAT6 (%)
From the text: (1) Construction of a STAT6 Reporter Plasmid
The Oligonucleotides (SEQ ID: 1, 2) containing two copies of STAT6 binding sequences (refer to J. Biol. Chem., vol. 276, No. 9, pp. 6675-6688 (2001).) were synthesized, and integrated into the enhancer region of the reporter plasmid pTA-Luc Vector (CLONTECH Laboratories, Inc.) at the restriction enzyme BgIII site.
When the oligonucleotide is integrated in positive direction into the plasmid, the upstream BglII site is not reconstructed. Therefore, STAT6 binding sequences can be increased by repeating integration of the oligonucleotide at the restriction enzyme BglII site.
In the present test, a plasmid including eight integrated STAT6 binding sequences was constructed and provided for the reporter assay as (GLS)x8/pTA-Luc. Confirmation of the sequences was carried out using an automated fluorescence sequencer (Model 310 (Applied Biosystems)).
(2) Transfection into U2-OS Cells and Inhibition Test for STAT6 Activation
U2-OS cells were seeded to at 2×10^4 cells/well in 96-well culture plates, and transfection was carried out using FuGENE 6 Transfection Reagent (Roche Diagnostics GmbH). The procedures of the transfection are shown below.
11 μg of reporter plasmid ((GLS)x8/pTA-Luc) and 1.1 μg of pCMV β (CLONTECH Laboratories, Inc.) were mixed in 1.1 mL of OPTI-MEM I medium (GIBCO BRL) (solution (A)).
33 μL of FuGENE 6 Transfection Reagent was mixed in 1.1 mL of OPTI-MEM I medium (solution (B)).
(§1) The above solution (A) and solution (B) were mixed, let them stand for 15 minutes at room temperature, then, 8.8 mL of OPTI-MEM I medium was added and diluted.
To this transfection solution, U2-OS cell suspension (11 mL) in McCoy's 5A medium (GIBCO BRL) containing 10% Fetal Bovine Serum (FBS; GIBCO BRL) at 2×10^5 cells/mL was added and well mixed.
(§2) 0.2 mL of the above solution was dispensed into each well of 96-well culture plates, and incubated for 24 hours (37° C., 5% CO2).
After removal of 50 μL of medium from each well, 50 μL of McCoy's 5A medium (serum-free) containing compound, of the present application was added to a final concentration of 0.01˜2 μM (0.001, 0.01, 0.1, 0.5, 1 or 2 μM), and the plates were incubated for 2 hours (37° C., 5% CO2).
10 μL of the McCoy's 5A medium (serum-free) containing human IL-4 (R&D Systems, Inc) was added to each well to achieve a final concentration of 40 ng/mL, and incubated for 8 hours (37° C., 5% CO2).
(§3) Medium was completely removed and plates were preserved at −80° C. until measurements.
(§4) Cell lysates were prepared by adding 40 μL of Passive Lysis Buffer (Promega Corporation) to each well.
(§5) 10 μL of each lysate was transferred to 96-well white plates. 50 μL of PicaGene L.T.2.0 (TOYO INK MFG. CO., LTD.) was added to each well, then, luminescence was measured after leaving for 10 minutes at room temperature.
(§6) 10 μL of each lysate was transferred to 96-well black plates. 100 μL of Z Buffer (preparation method will be explained later) was added to each well, and fluorescence was measured immediately.
(§7) 10 μL of each lysate was transferred to 96-well clear plates. 200 μL of protein assay reagent prepared from the BCA Protein Assay Kit (Pierce Biotechnology, Inc.) was added to each well, and, absorbance was measured after incubation for 30 minutes at 37° C.
(§8) For measurements of luminescence, fluorescence, and absorbance, microplate reader GENios (TECAN G.M.B.H.) was used.
(4) Calculation of Inhibition Rate
Luminescence values that show the degree of activation by IL-4 stimulation were normalized by β-gal values that show transfection efficiency. Using the normalized values, the following calculations were carried out using the luminescence values increased by IL-4 stimulation. Inhibition Rate(%)=[…] E: In the presence of the compound of the present application, increased luminescence value by IL-4 stimulation C: Without the presence of the compound of the present application, increased luminescence value by IL-4 stimulation […]

NF-κB = NF-κB inhibition test: pNFκB-Luc luciferase reporter in U2-OS cells stimulated with human TNF α; type: cell-based; conditions: human TNF α 10 ng/mL; for Inhibition Rate of NF-κB (%) / inhibition at 2 µM: compound 2 μM, 8 hours; for IC50: from inhibition rates at 1, 0.1, 0.01 and 0.001 μM, read-out: IC50 against activation of NF-κB; for inhibition at 2 µM: read-out: Inhibition Rate of NF-κB (%)
Protocol: (1) Transfection to U2-OS Cells and Inhibition Test of Activation
U2-OS cells were seeded at 2×10^4 cells/well in 96-well culture plate, and transfection was carried out using FuGENE 6 Transfection Reagent (Roche Diagnostics GmbH). The procedures of the transfection are shown below.
11 μg of reporter plasmid (pNFκB-Luc; Stratagene Corporation) and 1.1 μg of pCMV β (CLONTECH Laboratories, Inc.) were mixed in 1.1 mL of OPTI-MEM I medium (GIBCO BRL) (solution (A)).
[…] of FuGENE 6 Transfection Reagent was mixed in 1.1 mL of OPTI-MEM I medium (solution (B)).
as §1
To this transfection solution, U2-OS cell suspension (11 mL) in McCoy's 5A medium (GIBCO BRL) containing 10% Fetal Bovine Serum (FBS; GIBCO BRL) at […] was added and well mixed.
as §2
After removal of 50 μL of medium from each well, 50 μL of McCoy's 5A medium (serum-free) containing compound of the present application was added to a final concentration of 0.01˜2 μM (0.001, 0.01, 0.1, 0.5, 1 or 2 μM), and the plates were incubated for 2 hours (37° C., 5% CO2).
10 μL of the McCoy's 5A medium (serum-free) containing human TNF α (PEPROTECH EC Ltd.) was added to each well to achieve a final concentration of 10 ng/mL, and incubated for 8 hours (37° C., 5% CO2).
as §3, §4, §5, §6, §7, §8
(3) Calculation of Inhibition Rate
Luminescence values that show the degree of activation by TNF α stimulation were normalized by β-gal values that show transfection efficiency. Using the normalized values, the following calculation was carried out using the luminescence values that increased by TNF α stimulation. Inhibition Rate(%)=[…] E: In the presence of the compound of the present application, increased luminescence values by TNF α stimulation C: Without the presence of the compound of the present application, increased luminescence values by TNF α, stimulation
The values of protein assay by BCA reagent were used for a simple assessment of cytotoxicity, and not used for the calculation of inhibition rates.
NF-κB Inhibition Rates are shown below. The values in parentheses in the table represent the concentration of the compound of the present application.
NF-κB inhibition rates where the concentrations of the compound of the present application were 1, 0.1, 0.01 and 0.001 μM were calculated, and the 50% inhibitory concentrations (IC50) of the compounds of the present application against activation of NF-κB were evaluated.

Compound	Inhibition Rate of STAT6 (%) (STAT6)	IC50 (STAT6)	Inhibition Rate of NF-κB (%) (NF-κB)	IC50 (NF-κB)	inhibition at 2 µM (STAT6; U2OS)	inhibition at 2 µM (NF-κB; U2OS)	IC50 (STAT6; U2OS)	IC50 (NF-κB; U2OS)
O=C(Nc1ccc(N2CCCNCC2)c(F)c1)c1ccc(Cl)cc1O [compound 80]	91 (2 μM) %	2.23 nM	89 (2 μM) %	8.11 nM	–	–	–	–
CN1CCN(c2ccc(NC(=O)c3cc(Cl)ccc3O)cc2C(F)(F)F)CC1.Cl [compound 16]	92 (2 μM) %	82.2 nM	86 (2 μM) %	89.1 nM	–	–	–	–
CN1CCN(c2ccc(NC(=O)c3cccc(Cl)c3O)cc2F)CC1.Cl [compound 60]	26 (2 μM) %	–	16 (2 μM) %	–	–	–	–	–
CC1CCC(C)N1c1ccc(NC(=O)c2cc(Cl)ccc2O)cc1F (stereo not shown) [compound 84]	83 (2 μM) %	–	61 (2 μM) %	–	–	–	–	–
Cl.NC1CCN(c2ccc(NC(=O)c3ccc(Cl)cc3O)cc2F)CC1 [compound 71]	92 (2 μM) %	3.36 nM	94 (2 μM) %	8.41 nM	–	–	–	–
Cl.O=C(Nc1ccc(OC2CCNCC2)c(F)c1)c1cc(Cl)ccc1O [compound 32]	92 (2 μM) %	5.88 nM	91 (2 μM) %	13.7 nM	–	–	–	–
CN1CCCN(c2ccc(NC(=O)c3cc(Br)ccc3O)cc2F)CC1 [compound 86]	93 (2 μM) %	10.8 nM	93 (2 μM) %	7.62 nM	–	–	–	–
CN1CCCC(COc2ccc(NC(=O)c3cc(Cl)ccc3O)cc2F)C1 (stereo not shown) [compound 50]	43 (2 μM) %	–	45 (2 μM) %	–	–	–	–	–
CN1CCN(c2ccc(NC(=O)c3cc(Br)ccc3O)cc2F)CC1 [compound 69]	79 (2 μM) %	10.6 nM	76 (2 μM) %	30.3 nM	–	–	–	–
O=C(Nc1ccc(N2CCCCC2)c(Cl)c1)c1cc(Cl)ccc1O [compound 8]	93 (2 μM) %	–	61 (2 μM) %	–	–	–	–	–
CC(=O)N1CCN(c2ccc(NC(=O)c3cc(Cl)ccc3O)cc2F)CC1 [compound 11]	40 (2 μM) %	–	22 (2 μM) %	–	–	–	–	–
Cl.NC1CCN(c2ccc(NC(=O)c3cc(Br)ccc3O)cc2F)CC1 [compound 67]	94 (2 μM) %	5.32 nM	93 (2 μM) %	16 nM	–	–	–	–
O=C(Nc1ccc(N2CCCN(Cc3ccccc3)CC2)c(F)c1)c1cc(Cl)ccc1O [compound 52]	55 (2 μM) %	–	27 (2 μM) %	–	–	–	–	–
Cc1cc(NC(=O)c2cc(Cl)ccc2O)ccc1N1CCNCC1 [compound 23]	24 (2 μM) %	–	11 (2 μM) %	–	–	–	–	–
CC1CCC(C)N1c1ccc(NC(=O)c2cc(Cl)ccc2O)cc1F.Cl (stereo not shown) [compound 83]	80 (2 μM) %	–	59 (2 μM) %	–	–	–	–	–
Cl.NC1CCN(c2ccc(NC(=O)c3cc(Cl)ccc3O)cc2C(F)(F)F)CC1 [compound 74]	80 (2 μM) %	105 nM	84 (2 μM) %	66.5 nM	–	–	–	–
CC1CNCCN1c1ccc(NC(=O)c2cc(Cl)ccc2O)cc1F.Cl (stereo not shown) [compound 88]	90 (2 μM) %	25.5 nM	90 (2 μM) %	21.9 nM	–	–	–	–
O=C(Nc1ccc(C2CCNCC2)c(F)c1)c1cc(Cl)ccc1O [Compound 41]	–	–	–	–	78%	74%	–	–
O=C(Nc1ccc(N2CCCCCC2)c(F)c1)c1cc(Cl)ccc1O [compound 7]	84 (2 μM) %	–	46 (2 μM) %	–	–	–	–	–
O=C(Nc1ccc(N2CCCCC2)c(C(F)(F)F)c1)c1cc(Cl)ccc1O [compound 4]	71 (2 μM) %	–	28 (2 μM) %	–	–	–	–	–
O=C(Nc1ccc(N2CCSCC2)c(F)c1)c1cc(Cl)ccc1O [compound 26]	95 (2 μM) %	–	68 (2 μM) %	–	–	–	–	–
Cl.NCC1CCN(c2ccc(NC(=O)c3cc(Cl)ccc3O)cc2F)CC1 [compound 47]	96 (2 μM) %	7.98 nM	95 (2 μM) %	14 nM	–	–	–	–
CN1CCC(Oc2ccc(NC(=O)c3cc(Cl)ccc3O)cc2F)C1 (stereo not shown) [compound 38]	77 (2 μM) %	–	64 (2 μM) %	–	–	–	–	–
NC1CCN(c2ccc(NC(=O)c3cc(Cl)ccc3O)cc2F)CC1 [Compound 27]	–	–	–	–	98%	95%	3.22 nM	6.79 nM
CCOc1cc(NC(=O)c2cc(Cl)ccc2O)ccc1N1CCCCC1 [compound 14]	56 (2 μM) %	–	60 (2 μM) %	–	–	–	–	–
Cl.O=C(Nc1ccc(OCC2CCCNC2)c(F)c1)c1cc(Cl)ccc1O (stereo not shown) [compound 49]	84 (2 μM) %	14.8 nM	87 (2 μM) %	28.4 nM	–	–	–	–
